Laboratory results from the supplement of paper PMC5908809.

Tests used:
[1] = system: normal NK cells expanded with K562-aAPC; assay: drug sensitivity score (DSS) (DSS units); higher = more sensitive; extreme values may be limits of the assay; settings: 72 h; IL-2 2.5 ng/mL
Experimental: (§1)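 Drug sensitivity and resistance testing on K562-aAPC-expanded normal NK cells: 5 concentrations (10-fold steps over a 10,000-fold range), 72 h at 37 °C, viability by CellTiter-Glo normalised to DMSO and benzethonium chloride controls; DSS from the fitted curve.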

[2] = system: normal NK cells expanded with K562-aAPC; assay: percent inhibition of viability; higher = more inhibition; settings: 72 h, IL-2 2.5 ng/mL
Experimental: as §1

NK-YS (IL-2 2.5 ng/mL) [3] = assay: drug sensitivity score (DSS) (DSS units); higher = more sensitive; extreme values may be limits of the assay; settings: 72 h
[4] = system: normal primary NK cells, pool 2 (3 donors) (IL-2 2.5 ng/mL); assay: as above; settings: 72 h
[5] = system: normal primary NK cells, pool 1 (3 donors) (IL-2 2.5 ng/mL); assay: as above; settings: 72 h
SNK-6 (IL-2 2.5 ng/mL) [6] = assay: as above; settings: 72 h
KHYG-1 (IL-2 2.5 ng/mL) [7] = assay: as above; settings: 72 h
DERL-7 (IL-2 2.5 ng/mL) [8] = assay: as above; settings: 72 h
[9] = system: normal primary NK cells, pool 3 (3 donors) (IL-2 2.5 ng/mL); assay: as above; settings: 72 h
NKL (IL-2 2.5 ng/mL) [10] = assay: as above; settings: 72 h
[11] = system: normal primary NK cells, pool 1 (3 donors), resting (IL-2 0 ng/mL); assay: as above; settings: 72 h
KAI3 (IL-2 2.5 ng/mL) [12] = assay: as above; settings: 72 h
YT (IL-2 2.5 ng/mL) [13] = assay: as above; settings: 72 h
NK-92 (IL-2 2.5 ng/mL) [14] = assay: as above; settings: 72 h
IMC-1 (IL-2 20 ng/mL) [15] = assay: as above; settings: 72 h
NK-YS (IL-2 2.5 ng/mL) [16] = assay: percent inhibition of viability; higher = more inhibition; settings: 72 h
[17] = system: normal primary NK cells, pool 2 (3 donors) (IL-2 2.5 ng/mL); assay: as above; settings: 72 h
[18] = system: normal primary NK cells, pool 1 (3 donors) (IL-2 2.5 ng/mL); assay: as above; settings: 72 h
SNK-6 (IL-2 2.5 ng/mL) [19] = assay: as above; settings: 72 h
KHYG-1 (IL-2 2.5 ng/mL) [20] = assay: as above; settings: 72 h
DERL-7 (IL-2 2.5 ng/mL) [21] = assay: as above; settings: 72 h
[22] = system: normal primary NK cells, pool 3 (3 donors) (IL-2 2.5 ng/mL); assay: as above; settings: 72 h
NKL (IL-2 2.5 ng/mL) [23] = assay: as above; settings: 72 h
[24] = system: normal primary NK cells, pool 1 (3 donors), resting (IL-2 0 ng/mL); assay: as above; settings: 72 h
KAI3 (IL-2 2.5 ng/mL) [25] = assay: as above; settings: 72 h
YT (IL-2 2.5 ng/mL) [26] = assay: as above; settings: 72 h
NK-92 (IL-2 2.5 ng/mL) [27] = assay: as above; settings: 72 h
IMC-1 (IL-2 20 ng/mL) [28] = assay: as above; settings: 72 h

O=C1CCC(N2C(=O)c3ccccc3C2=O)C(=O)N1 (configuration not stated) [Thalidomide] (max concentration tested 10000 nM)
Settings	drug sensitivity score
DERL-7 (IL-2 2.5 ng/mL) [8]	0
IMC-1 (IL-2 20 ng/mL) [15]	0.03
KAI3 (IL-2 2.5 ng/mL) [12]	0.11
KHYG-1 (IL-2 2.5 ng/mL) [7]	0.01
NK-92 (IL-2 2.5 ng/mL) [14]	0.43
NK-YS (IL-2 2.5 ng/mL) [3]	0.86
NKL (IL-2 2.5 ng/mL) [10]	0.91
SNK-6 (IL-2 2.5 ng/mL) [6]	0
YT (IL-2 2.5 ng/mL) [13]	1.05
[1]	0.4
[4]	0
[5]	0
[9]	0
[11]	0

percent inhibition of viability [%]
Settings	1 nM	10 nM	100 nM	1000 nM	10000 nM
DERL-7 (IL-2 2.5 ng/mL) [21]	-4.35	1.66	0.7	-4.56	-10.4
IMC-1 (IL-2 20 ng/mL) [28]	-2.34	-2.83	3.91	5.3	12
KAI3 (IL-2 2.5 ng/mL) [25]	-9.63	-11.1	-3.59	-3.95	14.6
KHYG-1 (IL-2 2.5 ng/mL) [20]	-4.12	-6.62	0.67	6.18	10.3
NK-92 (IL-2 2.5 ng/mL) [27]	-15.9	-8.74	-9.71	7.78	12.7
NK-YS (IL-2 2.5 ng/mL) [16]	-5.98	-8.88	-3.38	8.1	15.2
NKL (IL-2 2.5 ng/mL) [23]	-18.5	-7.52	-3.52	13.7	11.1
SNK-6 (IL-2 2.5 ng/mL) [19]	-14.3	8.65	-18.4	-31.5	-27.8
YT (IL-2 2.5 ng/mL) [26]	-9.26	-7.23	-5.25	-0.15	26.5
[2]	-14.8	-5.18	-6.96	6.59	12.7
[17]	-7.68	-2.29	0.16	8.57	7.78
[18]	0.86	-2.62	18.8	-1.53	5.13
[22]	-10.6	-12.8	-2.32	1.72	4.5
[24]	6	-5.13	20	-1.84	-5.2

O=C(NOC[C@H](O)CO)c1ccc(F)c(F)c1Nc1ccc(I)cc1F (max concentration tested 1000 nM)
Settings	drug sensitivity score
DERL-7 (IL-2 2.5 ng/mL) [8]	23.1
IMC-1 (IL-2 20 ng/mL) [15]	0
KAI3 (IL-2 2.5 ng/mL) [12]	3.26
KHYG-1 (IL-2 2.5 ng/mL) [7]	9.09
NK-92 (IL-2 2.5 ng/mL) [14]	0
NK-YS (IL-2 2.5 ng/mL) [3]	0
NKL (IL-2 2.5 ng/mL) [10]	11.1
SNK-6 (IL-2 2.5 ng/mL) [6]	0
YT (IL-2 2.5 ng/mL) [13]	0
[1]	0
[4]	0
[5]	1.95
[9]	0
[11]	0

percent inhibition of viability [%]
Settings	0.1 nM	1 nM	10 nM	100 nM	1000 nM
DERL-7 (IL-2 2.5 ng/mL) [21]	102	5.21	16.2	22.4	38.7
IMC-1 (IL-2 20 ng/mL) [28]	-4.97	0.45	-4.28	-5.8	-9.8
KAI3 (IL-2 2.5 ng/mL) [25]	-0.87	5.85	13.8	15.7	22.6
KHYG-1 (IL-2 2.5 ng/mL) [20]	-3.39	0.89	14.1	40.9	55
NK-92 (IL-2 2.5 ng/mL) [27]	-5.72	-7.22	-10.3	-30.8	-12.8
NK-YS (IL-2 2.5 ng/mL) [16]	-5.52	-3.02	-1.28	2.92	8.84
NKL (IL-2 2.5 ng/mL) [23]	-14.2	-2.12	27.4	41.5	59.1
SNK-6 (IL-2 2.5 ng/mL) [19]	4.76	22	-8.5	-17.1	-28.3
YT (IL-2 2.5 ng/mL) [26]	-2.67	-1.04	-2.4	1.31	4.12
[2]	-1.9	-4.6	-6.15	-9.26	-3.18
[17]	-3.98	-4.69	-0.06	-5.3	5.01
[18]	-2.22	-8.03	2.53	15.6	18
[22]	-7.16	-7.47	-4.48	-8.83	-4.17
[24]	2.14	0.69	1.05	6.05	7

c1ccc([C@H]2CN3CCSC3=N2)cc1 [Levamisole] (max concentration tested 10000 nM)
Settings	drug sensitivity score
DERL-7 (IL-2 2.5 ng/mL) [8]	0
IMC-1 (IL-2 20 ng/mL) [15]	0
KAI3 (IL-2 2.5 ng/mL) [12]	0
KHYG-1 (IL-2 2.5 ng/mL) [7]	0
NK-92 (IL-2 2.5 ng/mL) [14]	0
NK-YS (IL-2 2.5 ng/mL) [3]	0
NKL (IL-2 2.5 ng/mL) [10]	0
SNK-6 (IL-2 2.5 ng/mL) [6]	0
YT (IL-2 2.5 ng/mL) [13]	0
[1]	0
[4]	0
[5]	0
[9]	0
[11]	0

percent inhibition of viability [%]
Settings	1 nM	10 nM	100 nM	1000 nM	10000 nM
DERL-7 (IL-2 2.5 ng/mL) [21]	-5.12	0.58	-3.2	-6.8	-8.1
IMC-1 (IL-2 20 ng/mL) [28]	0.36	-1.13	-6.73	-2.24	-6.39
KAI3 (IL-2 2.5 ng/mL) [25]	-7.01	-9.23	-10.5	-11.1	-14.3
KHYG-1 (IL-2 2.5 ng/mL) [20]	-4.84	-2.9	-4.9	-1.62	-2.11
NK-92 (IL-2 2.5 ng/mL) [27]	-11.8	-18.9	-18.4	-24.3	-19.2
NK-YS (IL-2 2.5 ng/mL) [16]	-2.25	-3.37	-7.18	-2.36	-6.1
NKL (IL-2 2.5 ng/mL) [23]	-11.2	0.14	-6.49	-4.45	-10.6
SNK-6 (IL-2 2.5 ng/mL) [19]	3.65	13.1	-14.1	-5.97	-47.5
YT (IL-2 2.5 ng/mL) [26]	-3.76	-6.23	-5.31	-5.18	-4.44
[2]	-4.29	-11	-5.79	-6.94	-11
[17]	-4.91	-0.55	-10.1	-7.03	-10.1
[18]	-7.56	-2.22	4.92	-0.77	2.81
[22]	-8.31	-11.3	-9.28	-4.76	-5.98
[24]	-4.85	-2.06	13.8	4.07	3.16
